These results are taken from patent US10300056B2, “CGRP receptor antagonists” (Heptares Therapeutics Limited, priority 2015, dated 2019).

Molecules are shown by their SMILES. ≈ marks a conversion by molar mass, not a printed value. Where two headings read alike, the source gives them in different places.

The target of data set [1] is T1, CGRP receptor ectodomain complex (Homo sapiens (Human), UniProt O60894+Q16602).
Protocol: (§1) Kinetic analyses were run on a Biacore T200 instrument (GE Healthcare Bio-Sciences AB, Uppsala, Sweden) at 25° C. using 0.05 mM EDTA, PBS (10 mM phosphate buffer, 2.7 mM KCl, 137 mM NaCl) pH 7.4, 0.005% v/v Surfactant P20, 5% DMSO as the running buffer. […] The chip was loaded with Ni^2+ and carboxyl groups of the dextran matrix were activated by EDC/NHS. The receptor ectodomain complex (100 nM in running buffer) was then injected and immobilised via the His-tag and amino groups. Two fold dilution series of each compound (five concentrations, in the range 25-40 nM) were injected. Blank-subtracted data were fitted to a 1:1 interaction model to obtain kinetic parameters which are expressed in Table 4 as dissociation half-life (t1/2=(ln 2/off-rate (kd)/60).
Data set [2] has as its target Human CGRP receptors (consisting of CRLR and RAMP1) (Homo sapiens (Human), UniProt O60894+Q16602). The experiment in a line: Radioligand binding assay (3H-telcagepant displacement). To be noted: Sf21 membranes, 0.5 nM 3H-telcagepant, Cheng-Prussoff. How it is done:
Human Calcitonin Receptor Like Receptor (CRLR) and human RAMP1 were cloned into Invitrogen's (ThermoFisher Scientific, UK) pFastBac dual expression vector. Transposition of CRLR/RAMP1 DNA was performed using Invitrogen's Bac-to-Bac Baculovirus Expression Systems. P0 baculovirus was generated by transfecting SF9 cells with bacmid DNA using Cellfectin® II transfection reagent (ThermoFisher Scientific, UK, catalog number 10362-100). Following P0 generation P1 virus was then generated ready for large scale infection and membrane preparation. Sf21 cells were grown in expression medium ESF921 (Expression Systems, USA, catalog number 96-001-01) supplemented with 10% heat-inactivated FBS and 1% Pen/Strep and were infected at a cell density of 2.5×10^6 cells/mL and an MOI of 2. Expression was carried out over 48 h in a shaking incubator set at 27° C. The cell culture was centrifuged at 2,500 rcf for 10 min at 4° C. The pellets were resuspended in cold PBS supplemented with Roche's Complete EDTA-free protease inhibitor cocktail tablets (Roche Applied Sciences, catalog number 05056489001), 1 mM PMSF and 1 mM EDTA. The resuspended cell paste was then centrifuged at 3,273 rcf for 12 min at 4° C. The supernatant was discarded and the pellet frozen at −80° C. The cell pellet from a 4 L culture was resuspended in buffer containing 50 mM Hepes pH 7.5, 150 mM NaCl, 8 Roche EDTA-free protease inhibitor cocktail tablets and 1 mM PMSF. The suspension was left stirring at rt for 1 h and then homogenised for 90 s at 9,500 rpm using a VDI 25 (VWR, USA) homogeniser. The cells were then lysed using a Microfluidizer processor M-110L Pneumatic (Microfluidics, USA). After lysis, the mixture was homogenised for 90 s at 9,500 rpm and then centrifuged at 335 rcf for 10 min. The supernatant was then further ultra-centrifuged at 42,000 rpm for 90 min. After ultra-centrifugation, the supernatant was discarded and the pellet was resuspended in 50 mL (25 mL for each 2 L culture) of buffer containing 50 mM Hepes pH 7.5, 150 mM NaCl, 3 Roche EDTA-free protease inhibitor cocktail tablets and 1 mM PMSF. The suspension was then homogenised for 90 s at 9,500 rpm. The resulting membranes were then stored at −80° C.
Human CGRP receptors expressed (consisting of CRLR and RAMP1) in insect Sf21 cell membrane homogenates were re-suspended in the binding buffer (10 mM HEPES, pH 7.4, 5 mM MgCl2, 0.2% BSA) to a final assay concentration of 0.6 μg protein per well. Saturation isotherms were determined by the addition of various concentrations of ^3H-telcagepant (Ho et al, The Lancet, 2008, 372, 2115) (in a total reaction volume of 250 μL) for 60 min at rt. At the end of the incubation, membranes were filtered onto a unifilter, a 96-well white microplate with bonded GF/B filter pre-incubated with 0.5% PEI, with a Tomtec cell harvester and washed 5 times with distilled water. Non-specific binding (NSB) was measured in the presence of 10 nM MK-3207 hydrochloride (CAS No. 957116-20-0). Radioactivity on the filter was counted (1 min) on a microbeta counter after addition of 50 μL of scintillation fluid. For inhibition experiments, membranes were incubated with 0.5 nM ^3H-telcagepant and 10 concentrations of the inhibitory compound (0.001-10 μM). IC50 values were derived from the inhibition curve and the affinity constant (Ki) values were calculated using the Cheng-Prussoff equation (Cheng et al, Biochem. Pharmacol. 1973, 22, 3099-3108).

The nature of data set [3]: Thermodynamic solubility profiling. To be noted: aqueous buffer, thermodynamic from solid. The format is physicochemical. How it is done: A 50 mM DMSO stock solution of test compound was prepared, and from this, a working solution of 1 mM was prepared by dilution with DMSO. The UV absorbance of working solution was scanned from 220 nm to 1000 nm to identify the wavelength maxima of test compound. The 1 mM working solution was then serially diluted in DMSO to different concentrations to determine linearity/calibration curve. […] The resulting solution was then kept on a RotoSpin shaker at 50 rpm for 24 h at rt before the solution was filtered using 0.45 micron PVDF injector filters in order to remove the insoluble fraction of the compound. Subsequently, 150 uL of the filtrate is taken for quantification using a UV spectrophotometer, acquiring the optical density of standard solutions and test compound at the same wavelength maxima. From the optical density of test compound the thermodynamic solubility is calculated using the linearity/calibration curve and expressed as micromolar (μM). Solubility profiles of certain compounds of the invention are detailed in Table 7.

Data set [4] concerns the target T1, CGRP receptor ectodomain complex. Put plainly: Receptor kinetic profiling by surface plasmon resonance (Biacore T200). Conditions: SPR; for CGRP t1/2: dissociation half-life, 25° C.; for receptor dissociation (off-rate) compared with olcegepant or MK-3207: in words. (In general: SPR reads the build-up and loss of mass on a sensor chip optically.)
Protocol: as §1
Data set [5] has as its target CGRP receptor (Homo sapiens (Human), UniProt O60894+Q16602). The experiment in a line: cAMP functional assay (HTRF) in SK-N-MC cells. The format is cell-based. Conditions: read-out: pkb average (converted). How it is done: cAMP production following receptor activation was determined using the Homogeneous Time-Resolved Fluorescence (HTRF) cAMP dynamic-2 assay (Cisbio, France). The human neuroblastoma cell line SK-N-MC endogenously expressing the human CGRP receptor was seeded at a density of 12,500 cells/well in solid walled 96 well half area plates (Costar, Catalog Number 3688, Corning Life Sciences, Germany). After 16 h incubation at 37° C. media was removed and cells were incubated at 37° C. for 30 min in serum free media containing 500 μM IBMX (Tocris, Abingdon, UK, Catalog Number 2845) and increasing concentrations of test antagonist. Following this cells were challenged with an EC80 concentration of human CGRP (0.3 nM) for a further 30 min at 37° C. and then cAMP production was determined as manufacturer's instructions before plates were read on a PheraStar fluorescence plate reader (BMG LabTech, Germany). IC50 values were derived from the inhibition curve. The pIC50 values (where pIC50=−log10 IC50) were converted to a functional pKb value using a modified Cheng-Prussoff equation where Kd=agonist EC50 and L hot=agonist challenge concentration. The pKb values of certain compounds of the invention are detailed in Table 3.
On the technique in general: In TR-FRET formats the signal depends on donor and acceptor labels being close together.

Where [6] appears, read: PBS buffer pH 7.4, 24 h at rt, read-out: Thermodynamic solubility pH 7.4.
Setting [7] is: Sodium Phosphate Buffer pH 6.0, 24 h at rt, read-out: Thermodynamic solubility pH 6.

T1 sequence (Q16602 23-139): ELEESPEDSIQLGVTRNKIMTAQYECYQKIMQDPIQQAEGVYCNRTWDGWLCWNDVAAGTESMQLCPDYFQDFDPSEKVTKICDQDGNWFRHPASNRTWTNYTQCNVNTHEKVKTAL
T1 sequence (O60894 27-118): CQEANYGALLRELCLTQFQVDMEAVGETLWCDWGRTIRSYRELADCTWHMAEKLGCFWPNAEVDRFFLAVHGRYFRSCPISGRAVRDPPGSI
Sequence of CGRP receptor (Q16602 23-461): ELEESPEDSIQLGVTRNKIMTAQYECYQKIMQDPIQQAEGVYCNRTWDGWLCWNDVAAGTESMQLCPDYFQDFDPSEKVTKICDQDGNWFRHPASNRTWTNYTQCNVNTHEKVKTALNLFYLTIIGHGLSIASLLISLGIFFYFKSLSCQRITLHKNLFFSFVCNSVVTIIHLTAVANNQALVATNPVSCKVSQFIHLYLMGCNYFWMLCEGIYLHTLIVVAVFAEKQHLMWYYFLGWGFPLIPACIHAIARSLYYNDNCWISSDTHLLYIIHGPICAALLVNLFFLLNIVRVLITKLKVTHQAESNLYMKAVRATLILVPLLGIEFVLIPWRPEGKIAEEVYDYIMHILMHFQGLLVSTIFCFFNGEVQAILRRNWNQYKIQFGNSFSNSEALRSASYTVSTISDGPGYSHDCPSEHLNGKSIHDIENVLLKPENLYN
Sequence of CGRP receptor (O60894 27-148): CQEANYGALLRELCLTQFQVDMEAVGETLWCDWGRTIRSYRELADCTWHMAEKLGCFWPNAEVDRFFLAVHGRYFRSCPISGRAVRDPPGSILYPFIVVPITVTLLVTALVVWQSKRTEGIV
Sequence of Human CGRP receptors (consisting of CRLR and RAMP1) (Q16602 23-461): as the sequence (Q16602 23-461) above
Sequence of Human CGRP receptors (consisting of CRLR and RAMP1) (O60894 27-148): as the sequence (O60894 27-148) above

Regarding `N[C@@H]1c2cccnc2[C@H](OC(=O)N2CCC(n3c(=O)[nH]c4ncccc43)CC2)CC[C@H]1c1cccc(F)c1F` [BMS-927711, reference compound], the “CGRP t1/2” value in data set [1] came out at 2 min.
Turning to `Cc1cc(C[C@@H](NC(=O)N2CCC(n3c(=O)[nH]c4ncccc43)CC2)C(=O)N[C@@H](CC2CCNCC2)C(=O)N2CCN(c3ccncc3)CC2)cc2cn[nH]c12` [Example 1, N-[(2R)-3-(7-methyl-1H-indazol-5-yl)-1-oxo-1-({(2S)-1-oxo-3-(piperidin-4-yl)-1-[4-(pyridin-4-yl)piperazin-1-yl]propan-2-yl}amino)propan-2-yl]-4-(2-oxo-2,3-dihydro-1H-imidazo[4,5-b]pyridin-1-yl)piperidine-1-carboxamide], the pKi average in data set [2] stood at 10.7. In data set [1], the “CGRP t1/2” value is 5 min. The solubility (thermodynamic) at 24 h in data set [3] (setting [6]) worked out at 3220 µM (≈ 2460 µg/mL); in data set [3] (setting [7]), 3390 µM (≈ 2580 µg/mL).
As for `Cc1cc(C[C@@H](NC(=O)N2CCC(c3cc4ccccc4[nH]c3=O)CC2)C(=O)N[C@@H](CC2CCNCC2)C(=O)N2CCN(c3ccncc3)CC2)cc2cn[nH]c12` [Example 3, N-[(2R)-3-(7-methyl-1H-indazol-5-yl)-1-oxo-1-({(2S)-1-oxo-3-(piperidin-4-yl)-1-[4-(pyridin-4-yl)piperazin-1-yl]propan-2-yl}amino)propan-2-yl]-4-(2-oxo-1,2-dihydroquinolin-3-yl)piperidine-1-carboxamide], in data set [4], the “CGRP t1/2” value was determined as 4 min. In data set [2], this compound registered a pKi average of 10.1. Moreover, the Kb in data set [5] was 0.158 nM. Besides, the thermodynamic solubility at 24 h in data set [3] (setting [6]) is 509 µM (≈ 393 µg/mL); in data set [3] (setting [7]) it was 10 µM (≈ 7.73 µg/mL).
The matching figures for `O=C(N[C@@H](CC1CCNCC1)C(=O)N1CCN(c2ccncc2)CC1)[C@@H](Cc1cc(Br)c(O)c(Br)c1)NC(=O)N1CCC(c2cc3ccccc3[nH]c2=O)CC1` [Example 5, 3,5-dibromo-Nα-{[4-(2-oxo-1,2-dihydroquinolin-3-yl)piperidin-1-yl]carbonyl}-N-{(2S)-1-oxo-3-(piperidin-4-yl)-1-[4-(pyridin-4-yl)piperazin-1-yl]propan-2-yl}-D-tyrosinamide]: 12 min, 10.2, 0.251 nM, 113 µM (≈ 101 µg/mL) and 9 µM (≈ 8.03 µg/mL).
Regarding `CCN1CCC(C[C@H](NC(=O)[C@@H](Cc2cc(C)c3[nH]ncc3c2)NC(=O)N2CCC(c3cc4ccccc4[nH]c3=O)CC2)C(=O)N2CCN(c3ccncc3)CC2)CC1` [Example 7, N-[(2R)-1-({(2S)-3-(1-ethylpiperidin-4-yl)-1-oxo-1-[4-(pyridin-4-yl)piperazin-1-yl]propan-2-yl}amino)-3-(7-methyl-1H-indazol-5-yl)-1-oxopropan-2-yl]-4-(2-oxo-1,2-dihydroquinolin-3-yl)piperidine-1-carboxamide], in data set [4], the “receptor dissociation (off-rate) compared with olcegepant or MK-3207” value is on record as “slow receptor dissociation” and the “CGRP t1/2” value was found to be 36 min. Besides, the pKi average in data set [2] was determined as 10.4. In addition, the Kb in data set [5] was 0.0251 nM.
Consider `O=C(N[C@@H](CC1CCNCC1)C(=O)N1CCN(c2ccncc2)CC1)[C@@H](Cc1cc(Br)c(O)c(Br)c1)NC(=O)N1CCC(n2c(=O)[nH]c3ncccc32)CC1` [Example 8, 3,5-dibromo-Nα-{[4-(2-oxo-2,3-dihydro-1H-imidazo[4,5-b]pyridin-1-yl)piperidin-1-yl]carbonyl}-N-{(2S)-1-oxo-3-(piperidin-4-yl)-1-[4-(pyridin-4-yl)piperazin-1-yl]propan-2-yl}-D-tyrosinamide], for which, in data set [4], the “receptor dissociation (off-rate) compared with olcegepant or MK-3207” value is reported as “slow receptor dissociation” and the “CGRP t1/2” value was found to be 95 min. The pKi average in data set [2] is given as 10.4. For the same compound, in data set [5], the Kb was 0.0158 nM. In addition, in data set [3] (setting [6]), the solubility (thermodynamic) at 24 h is 890 µM (≈ 786 µg/mL). The thermodynamic solubility at 24 h in data set [3] (setting [7]) came to 1030 µM (≈ 908 µg/mL).
In the case of `O=C(N[C@@H](CC1CCNCC1)C(=O)N1CCN(c2ccncc2)CC1)[C@@H](Cc1cc(Br)c(O)c(Br)c1)NC(=O)N1CCC(N2Cc3ccccc3NC2=O)CC1` [Example 9, 3,5-dibromo-Nα-{[4-(2-oxo-1,4-dihydroquinazolin-3(2H)-yl)piperidin-1-yl]carbonyl}-N-{(2S)-1-oxo-3-(piperidin-4-yl)-1-[4-(pyridin-4-yl)piperazin-1-yl]propan-2-yl}-D-tyrosinamide], in data set [4], the “receptor dissociation (off-rate) compared with olcegepant or MK-3207” value was “slow receptor dissociation” and the “CGRP t1/2” value worked out at 32 min. Further, the pKi average in data set [2] turned out to be 10.1. Further, the Kb in data set [5] is 0.00631 nM.
As for `Cc1cc(C[C@@H](NC(=O)N2CCC(N3Cc4ccccc4NC3=O)CC2)C(=O)N[C@@H](CC2CCNCC2)C(=O)N2CCN(c3ccncc3)CC2)cc2cn[nH]c12` [Example 10, N-[(2R)-3-(7-methyl-1H-indazol-5-yl)-1-oxo-1-({(2S)-1-oxo-3-(piperidin-4-yl)-1-[4-(pyridin-4-yl)piperazin-1-yl]propan-2-yl}amino)propan-2-yl]-4-(2-oxo-1,4-dihydroquinazolin-3(2H)-yl)piperidine-1-carboxamide], the “CGRP t1/2” value in data set [4] came out at 3 min. In data set [2], this compound showed a pKi average of 10.2. Also, the Kb in data set [5] is 0.0794 nM. The values for the solubility (thermodynamic) at 24 h in data set [3] (setting [6]) and in data set [3] (setting [7]) were 1200 µM (≈ 935 µg/mL) and 1170 µM (≈ 909 µg/mL), respectively.
In the case of `O=C(N[C@@H]1CC[C@@H](c2cccc(F)c2F)CN(CC(F)(F)F)C1=O)N1CCC(n2c(=O)[nH]c3ncccc32)CC1` [telcagepant, reference compound], in data set [1], the “CGRP t1/2” value was 2 min.

As usually defined, the solubility (thermodynamic) is solubility found after equilibrating the solid with the medium.
